Earlier results as cited in US20230190754A1, “Therapeutic combinations for the treatment of Progressive Fibrosing interstitial lung diseases” (Boehringer Ingelheim International GmbH, priority 2021, published 2023).

Experiments:
human lung fibroblasts = conditions: combination with nintedanib; cited from earlier work
PDE4 subtypes, A-D = conditions: cited from earlier work

[O-][S@+]1CCc2nc(N3CCC(c4ncc(Cl)cn4)CC3)nc(NC3(CO)CCC3)c21 [Comp. of form. III]
Effect on fibroblast proliferation (in words) (human lung fibroblasts): synergistic overadditive effect
Preferential enzymatic inhibition among the PDE4 subtypes (in words) (PDE4 subtypes, A-D): inhibit preferentially the PDE4 B subtype
